Where two headings read alike, the source gives them in different places.
Columns and labels:
P. falciparum NF54 = test: Antimalarial assay in vitro (3H-hypoxanthine microculture radioisotope technique); assay type: cell-based, Plasmodium falciparum; details: for IC50: Plasmodium falciparum, read-out: IC50 (µM) NF54; for SI L-6/NF54: selectivity index, quotient of L-6 cytotoxicity IC50 and NF54 IC50
Experimental: (§1) The drug sensitive strain of P. falciparum (NF54) was obtained from Schipol Airport, The Netherlands. […] L-6 cells were derived from rat skeletal myoblasts.
Antimalarial activity in vitro was determined by means of the microculture radioisotope technique which makes use of ^3H-hypoxanthine as an indicator of parasite viability. In this assay the drug sensitive NF54 strain was employed. Parasite cultures supplemented with HEPES (5.94 g/L), NaHCO3 (2.1 g/L), neomycin (100 U/mL), Albumax® (5 g/L) and washed human red cells A^+ at 2.5% haematocrit (0.3% parasitaemia) were incubated in RPMI 1640 medium without hypoxanthine and placed in the 96-well plates. Solutions of 4-(1H)-quinolone derivatives and the positive control chloroquine were dissolved in DMSO at 10 mg/mL and added to the first well followed by serial dilution to afford test concentrations ranging from 100 to 0.002 mg/L. After 48 h incubation at 37 °C, 4% CO2, 3% O2, 93% N2, ^3H-hypoxyanthine was added (0.5 µC/well) and then the plates were incubated further for 24 h under the same condition. The plates were freeze/thawed rapidly, harvested on glass fibre filters and dried. Radioactive hypoxanthine uptake was measured by scintillation counter. IC50 values were calculated from sigmoidal inhibition curves by linear regression using Microsoft Excel. Assays were carried out two times in triplicate.

[1] = test system: rat skeletal muscle cell (L-6); test: Cytotoxicity assay (Alamar Blue); assay type: cell-based; details: Myoblast, read-out: IC50 (µM) L-6
Experimental: as §1
96-well plates were seeded with 100 µL of RPMI 1640 medium supplemented with 1% L-glutamine and 10% fetal bovine serum, and rat skeletal muscle cell (L-6) (4 × 10^3/mL). The 4-(1H)-quinolone derivatives and the positive control podophyllotoxin were dissolved in DMSO and with a serial dilution ranging from […] were added into the wells in triplicate. The plates were incubated for 70 h and assessed microscopically for cell growth. Alamar Blue solution (10 µL) was then added to each well and incubation continued for 2 h before reading with a Spectramax Gemini XS at EX/EM 536/588. The IC50 values were calculated by linear regression from the sigmoidal dose inhibition curves using SoftmaxPro software. Tests were carried out two times in triplicate.

[2] = test system: T. b. rhodesiense STIB 900 strain; test: Antitrypanosomal assay in vitro (Alamar Blue); assay type: cell-based, Trypanosoma brucei rhodesiense; details: for IC50: Trypanosoma brucei, read-out: IC50 (µM) STIB900; for SI L-6/STIB900: selectivity index, quotient of cytotoxicity and antitrypanosomal IC50 values
Experimental: as §1
In vitro antitrypanosomal assay was carried out against the bloodstream form of T. b. rhodesiense STIB 900 strain using the Alamar Blue assay. The STIB 900 strain was suspended in fresh medium containing 1% MEM powder medium, MEM non-essential amino acids (100x) supplemented with 25 mM HEPES, additional glucose (1 g/L), 0.2 mM 2-mercaptoethanol, 1.0 mM sodium pyruvate and 15% heat inactivated horse serum. 50 µL (4 × 10^3 trypanosomes/mL) of this suspension was seeded in each well of the 96-well microtiter plate which contained test compounds and the positive control melarsoprol which were dissolved in DMSO and serially diluted to concentrations ranging from […]. The plates were incubated at 37 °C under 5% CO2 atmosphere for 70 h. Alamar Blue solution (10 µL) was added and incubation was continued for further 2–4 h. Plates were read with a Spectramax Gemini XS (Molecular Devices Cooperation, Sunnyvale, CA, USA) at EX/EM (536/588 nm). The IC50 values were calculated by linear regression from the sigmoidal dose inhibition curves using SoftmaxPro software. Tests were carried out two times in triplicate.

[3] = chloroquine sensitive strain P. falciparum NF54, 72 h total incubation
[4] = L-6 rat skeletal myoblasts, 70 h incubation
[5] = bloodstream form T. b. rhodesiense STIB 900, 70 h incubation

Row | IC50 (P. falciparum NF54; [3]) | IC50 (P. falciparum NF54; NF54, 72 h) | SMILES | SI L-6/NF54 (P. falciparum NF54) | IC50 [1, 4] | IC50 [2, 5] | SI L-6/STIB900 [2] | IC50 ([1]; Rattus norvegicus, 70 h) | loss in potency compared to 29 (P. falciparum NF54; antimalarial potency, P. falciparum NF54, hydrogenation of the alkenyl chain of 29) | IC50 ([2]; 70 h)
1 | 1.99 µM | – | CC1=C(/C=C/c2cc(=O)c3ccccc3n2CCBr)C(C)(C)CCC1 [Compound 21, 1-(2-Bromoethyl)-2-[(1′E)-2′-(2′′,6′′,6′′-trimethyl-1′′-cyclohexen-1′′-yl)ethenyl]-4-(1H)-quinol-one] | 16.65 | 33.2 µM | 8.85 µM | 3.76 | – | – | –
2 | 0.39 µM | – | CCCCCCCCCC=CCCCCc1cc(=O)c2ccccc2n1C [Compound 29] | 33.84 | 13.2 µM | 10.8 µM | – | – | – | –
3 | 15.3 µM | – | CCCCCC/C=C\CCc1cc(=O)c2ccccc2n1C [Compound 28] | 3.22 | 49.5 µM | 11 µM | 4.48 | – | – | –
4 | 1.19 µM | – | CCCCCCCCCCCC/C=C/c1cc(=O)c2ccccc2n1CCC [Compound 18f] | 10.99 | 13 µM | 19.1 µM | 0.68 | – | – | –
5 | – | – | COc1cc([C@@H]2c3cc4c(cc3[C@H](O)[C@H]3COC(=O)[C@H]23)OCO4)cc(OC)c1OC [Podophyllotoxin, reference compound] | – | – | – | – | 0.017 µM | – | –
6 | 2.29 µM | – | CCCCCCCCCCCC/C=C/c1cc(=O)c2ccccc2n1CCCC [Compound 18g] | 5.79 | 13.3 µM | 18.7 µM | 0.70 | – | – | –
7 | 2.3 µM | – | CCCCCCCCCC/C=C/c1cc(=O)c2ccccc2n1CCBr [Compound 18b] | 16.69 | 38.4 µM | 8.28 µM | 4.63 | – | – | –
8 | 0.47 µM | – | CCCOc1ccc(/C=C/c2cc(=O)c3cc(Cl)ccc3n2C)cc1 [Compound 10b, 6-Chloro-1-methyl-2-[(1′E)-(4′′-propoxyphenyl)ethenyl]-4-(1H)-quinolone] | 342.89 | 161 µM | 21.9 µM | 7.36 | – | – | –
9 | 0.69 µM | – | Cn1c(/C=C/CCCCCCCCCBr)cc(=O)c2ccccc21 [Compound 19] | 52.64 | 36.3 µM | 1.07 µM | – | – | – | –
10 | 0.82 µM | – | Cn1c(-c2ccc(CCCCCCCCCCN3CCCCC3)cc2)cc(=O)c2ccccc21 [Compound 5b, 1-Methyl-2-[4′-(10′′-piperidinyldecyl)phenyl]-4-(1H)-quinolone] | 11.73 | 9.63 µM | 3.41 µM | 2.83 | – | – | –
11 | 1.56 µM | – | CCCCCOc1ccc(/C=C/c2cc(=O)c3ccccc3n2CCBr)cc1 [Compound 11] | 27.11 | 42.4 µM | 3.82 µM | 11.10 | – | – | –
12 | – | 0.0063 µM | CCN(CC)CCCC(C)Nc1ccnc2cc(Cl)ccc12 (stereo not drawn) [Chloroquine, reference compound] | – | – | – | – | – | – | –
13 | 0.45 µM | – | CCCCCCCCCCC#CCCc1cc(=O)c2ccccc2n1CC [Compound 36b] | 29.82 | 13.6 µM | 16.6 µM | 0.82 | – | – | –
14 | 6.4 µM | – | CCCCCCCCCCCCCCCc1cc(=O)c2ccccc2n1C [Compound 30] | 15.91 | 101 µM | 42.4 µM | 2.39 | – | 16 fold | –
15 | 12.4 µM | – | CCCCCCCCC/C=C/c1cc(=O)c2ccccc2n1C [Compound 18a] | 3.61 | 44.7 µM | 52.2 µM | 0.86 | – | – | –
16 | 1.58 µM | – | CCCOc1ccc(/C=C/c2cc(=O)c3ccccc3n2CCBr)cc1 [Compound 10a, 1-(2-Bromoethyl)-2-[(1′E)-(4′′-propoxyphenyl)ethenyl]-4-(1H)-quinolone] | 16.45 | 25.8 µM | 1.25 µM | – | – | – | –
17 | 1.35 µM | – | CN1CCN(CCCCCCCCC/C=C/c2cc(=O)c3ccccc3n2C)CC1 [Compound 20, 1-Methyl-2-[(1′E)-11′(N-methylpiperazinyl)undecenyl]-4-(1H)-quinolone] | 24.14 | 32.5 µM | 4.94 µM | 6.59 | – | – | –
18 | 0.09 µM | – | Cn1c(-c2ccc(CCCCCCBr)cc2)cc(=O)c2ccccc21 [Compound 5a, 1-Methyl-2-[4′-(6′′-bromohexyl)phenyl]-4(1H)-quinolone] | – | 6.63 µM | 1.64 µM | 4.04 | – | – | –
19 | 4.64 µM | – | C#CCn1c(/C=C/CCCCCCCCCCCC)cc(=O)c2ccccc21 [Compound 18d] | 5.32 | 24.7 µM | 24.5 µM | 1.01 | – | – | –
20 | – | – | Nc1nc(N)nc(Nc2ccc([As]3SCC(CO)S3)cc2)n1 (stereo not drawn) [Melarsoprol, reference compound] | – | – | – | – | – | – | 0.0075 µM
21 | 3.11 µM | – | CCCCCCCCCCC#CCCc1cc(=O)c2ccccc2n1C [Compound 36a] | 4.29 | 13.3 µM | 33.5 µM | 0.39 | – | – | –
22 | 10.1 µM | – | Cn1c(CCCCC=C2CCCCCC2)cc(=O)c2ccccc21 [Compound 31] | 4.52 | 45.8 µM | 14.4 µM | 3.19 | – | – | –
23 | 0.84 µM | – | CCCCCCCCCCCCC#Cc1cc(=O)c2ccccc2n1C [Compound 35] | 18.78 | 15.8 µM | 10.5 µM | 1.50 | – | – | –
24 | 0.31 µM | – | C=CCn1c(/C=C/CCCCCCCCCCCC)cc(=O)c2ccccc21 [Compound 18e] | 45.78 | 14 µM | 8.18 µM | 1.71 | – | – | –

Source: publication PMC6271202, “1,2-Substituted 4-(1H)-Quinolones: Synthesis, Antimalarial and Antitrypanosomal Activities in Vitro” (Molecules, 2014)
